Test in all cases: NCI-60 cell line screen, 48 h
In assay [1] the test system is CAKI-1.
Assay [2] concerns Hs-578T.
For assay [3], the system named is SK-MEL-2.
For assay [4], the system named is MDA-MB-435.
The test system of assay [5] is SK-OV-3.
Assay [6] concerns EKVX.
In assay [7] the test system is HCT-116.
Assay [8] has as its system SR.
Assay [9] deals with K562.
Assay [10] has as its system MOLT-4.
The test system of assay [11] is A549.
Assay [12] relates to RXF 393.
Assay [13] deals with SNB-19.
Assay [14] deals with UACC-62.
For assay [15], the system named is OVCAR-4.
Assay [16] has as its system NCI/ADR-RES.
Assay [17] has as its system RPMI-8226.
In assay [18] the test system is TK-10.
Assay [19] deals with SF-539.
For assay [20], the system named is HOP-92.

The structures appear in SMILES notation.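 Each compound was tested at five concentrations against cells in 96-well plates for 48 hours. At the GI50, growth is halved.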 Active and inactive are the calls of the source. Cut-off read from the data, not from the text of the source: active = GI50 up to about 1.1 µM and inactive = higher.

From ChEMBL document CHEMBL1201862, “PubChem BioAssay data set” (2004) come the findings set out here.

With `O=C(Oc1ccc(OC(Oc2ccccc2)c2ccccc2)cc1)c1ccccc1` (stereo not given), the GI50 in assay [1] is > 10 µM (inactive); in assay [2] it was > 31.6 µM (inactive); in assay [3], 17.3 µM (inactive); in assay [4], 24.6 µM (inactive); in assay [5] it was 27.2 µM (inactive); in assay [6], 29.7 µM (inactive). Further, the GI50 in assay [7] was 16.1 µM (inactive); in [8] it was 19.1 µM (inactive); in assay [9] it was > 31.6 µM (inactive); in assay [10] it was 16 µM (inactive); in assay [11] it was 21.1 µM (inactive); in assay [12], > 92.3 µM (inactive). Also, the GI50 is > 31.6 µM (inactive) in [13]; > 31.6 µM (inactive) in assay [14]; 15 µM (inactive) in assay [15]; 27.9 µM (inactive) in [16]; 13.2 µM (inactive) in assay [17]; 31.3 µM (inactive) in [18].

In the case of `N[C@@H](Cc1ccccc1)C(=O)N1CCC[C@@H]1P(=O)(Oc1ccccc1)Oc1ccccc1`, the GI50 in [1], in [2], in assay [3], in assay [4], in assay [19] and in [5] was > 100 µM (inactive) each time. Moreover, the GI50 in [6] is > 100 µM (inactive); in assay [20], > 100 µM (inactive); in [7], > 100 µM (inactive); in assay [9], 77.8 µM (inactive); in assay [10], 60.3 µM (inactive); in [11], > 100 µM (inactive). The GI50 in assay [12] is > 100 µM (inactive); in [13], > 100 µM (inactive); in assay [14] it was > 100 µM (inactive); in assay [15], > 100 µM (inactive); in assay [16] it was > 100 µM (inactive); in [17], 96.4 µM (inactive). Besides, the GI50 in assay [18] is > 100 µM (inactive).

Regarding `CC1(C)[C@H]2CC[C@@]13C(=O)N1C(=O)O[C@@H]([C@H]1Cl)C(Cl)(COCc1ccccc1)C(=O)OCCO[C@H]3C2` (stereo not given in full), the GI50 is > 100 µM (inactive) in [1]; 88.1 µM (inactive) in assay [2]; 85.5 µM (inactive) in [3]; 42.8 µM (inactive) in [4]; > 100 µM (inactive) in assay [19]; > 100 µM (inactive) in assay [5]. Besides, the GI50 in assay [6] is 95.9 µM (inactive); in [20], > 100 µM (inactive); in [7], 37.8 µM (inactive); in assay [8], 39.7 µM (inactive); in assay [9], 24.3 µM (inactive); in [10], 21 µM (inactive). Further, the GI50 in [11] was 54.3 µM (inactive); in assay [13] it was > 100 µM (inactive); in assay [14] it was 83.6 µM (inactive); in assay [15], 40.6 µM (inactive); in assay [16], 59.4 µM (inactive); in [17], 28.2 µM (inactive).

As to `O=C1CSC2(CC(/C=C/c3cccs3)=NN2c2cccc(S(=O)(=O)O)c2)N1c1nc2ccccc2s1` (stereo not given), the GI50 is > 100 µM (inactive) in [1]; > 100 µM (inactive) in assay [2]; > 100 µM (inactive) in assay [3]; 72.4 µM (inactive) in [4]; > 100 µM (inactive) in assay [19]; 52.6 µM (inactive) in [6]. Moreover, the GI50 in [20] is 41.2 µM (inactive); in [7] it was > 100 µM (inactive); in assay [8], 30.2 µM (inactive); in [9] it was 49.4 µM (inactive); in assay [10] it was 35.7 µM (inactive); in [11], > 100 µM (inactive). Besides, the GI50 in [12] was > 100 µM (inactive); in assay [13], > 100 µM (inactive); in assay [14], 49.4 µM (inactive); in [15], > 100 µM (inactive); in assay [16], > 100 µM (inactive); in assay [17], 31.1 µM (inactive). The GI50 in assay [18] was 62.1 µM (inactive).

On to `CC(C)(C)OC(=O)NC1CCCC1C(=O)C1=CCCC1` (stereo not given), for which the GI50 was 44 µM (inactive) in assay [2]; > 100 µM (inactive) in assay [3]; 90.6 µM (inactive) in assay [4]; > 100 µM (inactive) in assay [5]; > 100 µM (inactive) in [20]; 97.3 µM (inactive) in assay [7]. Moreover, the GI50 in [8] was 90.8 µM (inactive); in assay [9], > 100 µM (inactive); in assay [10], > 100 µM (inactive); in assay [11] it was > 100 µM (inactive); in assay [12], > 100 µM (inactive); in assay [13], > 100 µM (inactive). Also, the GI50 was 70.1 µM (inactive) in [14], 49.1 µM (inactive) in [15], > 100 µM (inactive) in assay [16] and > 100 µM (inactive) in assay [17].

On to `COc1ccc(-n2nnc3c(C#N)c(C)c(-c4ccccc4)n3c2=O)cc1`, for which the GI50 was 4.58 µM (inactive) in assay [2]; 3.56 µM (inactive) in assay [3]; 0.543 µM (active) in assay [4]; 2.04 µM (inactive) in assay [19]; 2.29 µM (inactive) in assay [5]; 2.84 µM (inactive) in [6]. For the same compound, the GI50 in assay [20] is > 92.7 µM (inactive); in [7], 0.501 µM (active); in [8] it was 1.96 µM (inactive); in [10] it was 0.455 µM (active); in [11], 2.9 µM (inactive); in assay [12] it was 2.2 µM (inactive). Moreover, the GI50 in assay [13] is 3.35 µM (inactive); in assay [14], 4.41 µM (inactive); in assay [15], > 75.2 µM (inactive); in assay [16], 2.84 µM (inactive); in [17], 1.99 µM (inactive); in assay [18], > 43.2 µM (inactive).

For `COc1ccc(-c2cc(-c3ccc(Nc4ccnc5cc(C(F)(F)F)ccc45)cc3)[nH]c(=O)c2C#N)cc1`, the GI50 in assay [1] was > 100 µM (inactive); in assay [2], 10.1 µM (inactive); in assay [3] it was > 50.6 µM (inactive); in [4], 39.6 µM (inactive); in [19] it was 21 µM (inactive); in assay [6] it was 98.9 µM (inactive). The GI50 in assay [20] was 49.7 µM (inactive); in assay [7], 11.4 µM (inactive); in assay [8], 9.51 µM (inactive); in assay [9], 33.8 µM (inactive); in [10] it was > 100 µM (inactive); in assay [11], > 100 µM (inactive). The GI50 is > 32.7 µM (inactive) in assay [12]; 16.4 µM (inactive) in assay [13]; 62.4 µM (inactive) in assay [14]; > 100 µM (inactive) in assay [15]; > 100 µM (inactive) in [16]; > 100 µM (inactive) in assay [17]. In addition, the GI50 in [18] is > 43.6 µM (inactive).

For `Nc1c(-c2nc3ccccc3s2)c2ccc([N+](=O)[O-])cc2c(=O)n1-c1cccc(C(=O)O)c1`, the GI50 is 27.5 µM (inactive) in assay [1]; 27.5 µM (inactive) in assay [2]; 20.9 µM (inactive) in [3]; 35.6 µM (inactive) in assay [4]; 24.2 µM (inactive) in assay [20]; 21.2 µM (inactive) in [7]. Further, the GI50 in [8] is 15.8 µM (inactive); in [11] it was 34.9 µM (inactive); in assay [13], 19.8 µM (inactive); in [14], 21 µM (inactive); in assay [15] it was 31.9 µM (inactive); in assay [16] it was 33.1 µM (inactive). In addition, the GI50 in assay [18] is 19 µM (inactive).

`O=[N+]([O-])c1ccc(C(c2c[nH]c3ccccc23)c2c[nH]c3ccccc23)cc1`: the GI50 in assay [2] was 19 µM (inactive); in assay [3] it was 7.31 µM (inactive); in assay [4], 13.3 µM (inactive); in assay [19] it was 16.4 µM (inactive); in assay [5], 16.8 µM (inactive); in assay [6], 19.4 µM (inactive). The GI50 in [8] was 4.5 µM (inactive); in [9], 6.61 µM (inactive); in assay [10], 9.66 µM (inactive); in [11] it was 6.82 µM (inactive); in assay [13], 15.7 µM (inactive); in assay [14] it was 10.5 µM (inactive). Further, the GI50 in assay [15] was 12 µM (inactive); in assay [16], 11 µM (inactive); in assay [17], 1.45 µM (inactive); in assay [18], 12.7 µM (inactive).

As for `Cc1ccc(S(=O)(=O)NNC(=O)Nc2ccc([N+](=O)[O-])cc2)cc1`, the GI50 is 65.8 µM (inactive) in [1]; 34.6 µM (inactive) in assay [2]; > 100 µM (inactive) in [3]; 55 µM (inactive) in assay [4]; 50.7 µM (inactive) in [19]; > 100 µM (inactive) in [6]. Also, the GI50 in [20] was 43.8 µM (inactive); in assay [7], 26.9 µM (inactive); in [8] it was 42.6 µM (inactive); in assay [9], 38.4 µM (inactive); in assay [10], 46.3 µM (inactive); in assay [11], 35.6 µM (inactive). For the same compound, the GI50 in assay [12] is > 100 µM (inactive); in assay [13], 69.5 µM (inactive); in [14], 22.8 µM (inactive); in assay [15], 26.2 µM (inactive); in [16], 27.4 µM (inactive); in assay [17], 20 µM (inactive). Besides, the GI50 in [18] was 67.3 µM (inactive).

In the case of `CCOP(=O)(OCC)/C(C#N)=C/c1ccc(-c2cc(C(F)(F)F)cc(C(F)(F)F)c2)o1`, the GI50 is 25.1 µM (inactive) in [2]; 20.3 µM (inactive) in assay [3]; 14 µM (inactive) in assay [4]; 14.9 µM (inactive) in assay [19]; 20.7 µM (inactive) in assay [6]; 8.41 µM (inactive) in [20]. The GI50 is 13.2 µM (inactive) in assay [7]; 7.43 µM (inactive) in [8]; 3.3 µM (inactive) in assay [9]; 3.71 µM (inactive) in assay [10]; 14.4 µM (inactive) in [11]; 16 µM (inactive) in [13]. Also, the values for the GI50 in assay [16], in [17] and in assay [18] were 9.82 µM (inactive), 3.59 µM (inactive) and 16.4 µM (inactive), respectively.
